Measured values published in patent US9850343B2, “Method for producing liquid crystalline polyester, and liquid crystalline polyester” (TORAY Industries, Inc., priority 2013, dated 2017).

Experiment: Acid dissociation constant (pKa) in aqueous sulfonic acid solution
Assay type: physicochemical
Settings: aqueous sulfonic acid solution titrated at 25° C. with aqueous sodium hydroxide; from pH at 50% neutralization
Protocol: Examples of the method for measuring pKa include a method in which an aqueous aliphatic sulfonic acid solution is titrated with a titrant such as sodium hydroxide at 25° C., and pKa is calculated from the pH value at the time point when 50% neutralization was achieved.
(7) Acid Dissociation Constant (pKa) in Aqueous Sulfonic Acid Solution
The aqueous sulfonic acid solution used in each of Examples and Comparative Examples was subjected to titration at 25° C. using an aqueous sodium hydroxide solution, and the acid dissociation constant was calculated based on the pH value at the time point when 50% neutralization was achieved.

CCS(=O)(=O)O [ethanesulfonic acid]
pKa: -1.3

CCCCCCCCCCCCS(=O)(=O)O [n-dodecylsulfonic acid]
pKa: 0.3
